These results are taken from PMC3050433, “The effects of maribavir on the autophosphorylation of ganciclovir resistant mutants of the cytomegalovirus UL97 protein” (Herpesviridae, 2010).

The target of one assay is T1, UL97 H520Q (Human cytomegalovirus, UniProt Q68101, H520Q).
T1 construct: PCR reaction to generate the full length UL97; honey bee melittin secretion signal (N); made in house; host or cells: Sf21 insect cells, recombinant baculovirus (pMelBac C)
T1 sequence (Q68101 1-707 H520Q): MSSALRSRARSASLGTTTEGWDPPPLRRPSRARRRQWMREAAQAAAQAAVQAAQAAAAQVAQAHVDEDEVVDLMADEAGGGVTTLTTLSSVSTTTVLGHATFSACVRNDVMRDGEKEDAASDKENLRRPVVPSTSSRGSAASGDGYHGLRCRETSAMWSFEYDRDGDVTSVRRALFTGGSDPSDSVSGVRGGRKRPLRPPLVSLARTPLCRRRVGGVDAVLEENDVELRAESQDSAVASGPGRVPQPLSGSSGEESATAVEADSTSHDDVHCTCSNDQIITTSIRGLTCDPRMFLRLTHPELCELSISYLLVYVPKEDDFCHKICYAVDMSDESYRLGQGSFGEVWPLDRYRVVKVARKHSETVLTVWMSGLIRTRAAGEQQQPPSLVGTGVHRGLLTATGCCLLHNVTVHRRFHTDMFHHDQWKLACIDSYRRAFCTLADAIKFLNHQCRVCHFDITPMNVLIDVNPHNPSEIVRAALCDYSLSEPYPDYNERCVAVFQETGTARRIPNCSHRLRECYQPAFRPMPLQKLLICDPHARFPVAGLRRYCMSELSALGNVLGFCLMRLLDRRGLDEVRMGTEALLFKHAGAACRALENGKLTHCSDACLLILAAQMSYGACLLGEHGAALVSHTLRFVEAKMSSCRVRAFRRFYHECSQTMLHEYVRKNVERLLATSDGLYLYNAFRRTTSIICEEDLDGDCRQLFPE
Description: UL97 autophosphorylation protein kinase assay, H520Q. It is filed as biochemical. Here is the method: (§1) Analysis of the autophosphorylation of wild type and mutant UL97 protein species was performed by a standard protein kinase assay as previously described (46). Briefly, purified protein was added to 2× protein kinase buffer (100 mM Tris HCl, pH9.0, 20 mM MgCl2, 10 μM ATP, 4 mM DTT, 2 M NaCl) and 370 KBq [γ^32P] ATP (Amersham), made up to 20 μl with SDW and incubated at 37°C. The reactions were terminated by the addition of 2× SDS sample buffer followed by boiling for 3 minutes. The amount of radiolabelled phosphate incorporated by autophosphorylation was analysed by SDS-PAGE and measured using the Biorad Mulitanalyst. The protein kinase assays were initially performed for 2 to 60 minutes to determine the maximum rate of phosphate incorporation, all assays were then performed at the maximum rate which equated to 5 minutes.
(§2) Enzyme kinetic analysis was performed on the purified wild type and mutant UL97 protein species as above using increasing concentrations of ATP (2 μM to 20 μM). The amount of incorporated radiolabelled phosphate was plotted against the concentration of ATP in a Lineweaver Burke plot to determine the Km for ATP for each UL97 species. […]

In the next assay the target is T2, UL97 A594T (Human cytomegalovirus, UniProt Q68101, A594T).
T2 construct: PCR reaction to generate the full length UL97; honey bee melittin secretion signal (N); made in house; host or cells: Sf21 insect cells, recombinant baculovirus (pMelBac C)
T2 sequence (Q68101 1-707 A594T): T1 sequence (Q68101 1-707 H520Q) with Q520H, A594T
Description: UL97 autophosphorylation protein kinase assay, A594T. It is filed as biochemical. Here is the method: as §1, §2

The next assay relates to HCMV. Further details: method as in PMID 12121906. The settings on record: HCMV replication in vitro; cited from earlier work.
The subject of assay [1] is HCMV strains resistant to ganciclovir, foscarnet and cidofovir. Further details: method as in PMID 16962820. The settings on record: cited from earlier work.

Changes are numbered by the printed parent chain.

Turning to `CC(C)Nc1nc2cc(Cl)c(Cl)cc2n1[C@H]1O[C@@H](CO)[C@H](O)[C@@H]1O` [maribavir, 5,6-dichloro-2-(isopropylamino)-1-beta-L-ribofuranosyl-1H-benzimidazole], the results for the IC50 on UL97 H520Q (H520Q mutant) and at UL97 A594T (A594T mutant) were 33 nM and 31 nM, respectively. In addition, the “IC50 fold lower than that observed for GCV” value in the assay on HCMV was 4-to 10 fold. Moreover, the “activity against resistant strains” value in assay [1] is reported as “active”.
For the compound `Nc1ncnc2c1ncn2[C@@H]1O[C@H](COP(=O)(O)OP(=O)(O)OP(=O)(O)O)[C@@H](O)[C@H]1O` [ATP], the Km – broadly, the concentration of substrate that gives half-maximal velocity – on UL97 H520Q (H520Q, read-out: Km for ATP) amounted to 25 ± 2.4 µM; at UL97 A594T (A594T, read-out: Km for ATP), 40 ± 4.2 µM.
